From ChEMBL document CHEMBL5674860, “Optimized Dual-Glo Assay to identify co-culture-induced drug vulnerabilities in 3D CRC models” (2024)

Legend:
Type in all cases: functional, Homo sapiens
Set-up in all cases: dose or concentration left out as unconfirmed
[1] = system: Colon cancer organoid; assay: Optimized Dual-Glo assay to identify co-culture induced drug vulnerabilities using donated chemical probes and chemogenomics kinase set in O14 CRC organoid and F14 CAF mono and co-culture. […] Cell viability is reported both mono and co-culture models.
[2] = system: Colon cancer organoid; assay: Optimized Dual-Glo assay to identify co-culture induced drug vulnerabilities using donated chemical probes and chemogenomics kinase set in O20 CRC organoid and F20 CAF mono and co-culture. […] Cell viability is reported both mono and co-culture models.
[3] = system: Colon cancer organoid; assay: Optimized Dual-Glo assay to identify co-culture induced drug vulnerabilities using donated chemical probes and chemogenomics kinase set in O06 CRC organoid and F06 CAF mono and co-culture. […] Cell viability is reported both mono and co-culture models.
[4] = Culture type Co-Culture, Transduced with Lucferase2-P2A-EGFP lentivirus
[5] = Culture type Co-Culture, Transduced with Renilla-dsRed lentivirus
[6] = Culture type Mono-Culture, Transduced with Lucferase2-P2A-EGFP lentivirus
[7] = Culture type Mono-Culture, Transduced with Renilla-dsRed lentivirus

Structure (SMILES): Cc1ncsc1-c1ccc(CNC(=O)[C@@H]2C[C@@H](O)CN2C(=O)[C@@H](NC(=O)CCCCNC(=O)c2ccc(-c3ccc(N4CCN(C)CC4)c(NC(=O)c4c[nH]c(=O)cc4C(F)(F)F)c3)cc2)C(C)(C)C)cc1
- Cell Viability [1, 4]: 94.9121%
- Cell Viability [1, 5]: 103.946%
- Cell Viability [1, 6]: 89.8204%
- Cell Viability [1, 7]: 93.3904%
- Cell Viability [2, 4]: 171.817%
- Cell Viability [2, 5]: 86.697%
- Cell Viability [2, 6]: 106.449%
- Cell Viability [2, 7]: 104.541%
- Cell Viability [3, 4]: 81.8894%
- Cell Viability [3, 5]: 85.2238%
- Cell Viability [3, 6]: 101.813%
- Cell Viability [3, 7]: 95.3362%

Structure (SMILES): O=C(CNCc1cc2ccccc2[nH]1)N[C@H]1CC[C@@H](c2nc3ccccc3[nH]2)CC1
- Cell Viability [1, 4]: 97.4401%
- Cell Viability [1, 5]: 97.7804%
- Cell Viability [1, 6]: 95.7204%
- Cell Viability [1, 7]: 104.778%
- Cell Viability [2, 4]: 100.625%
- Cell Viability [2, 5]: 124.153%
- Cell Viability [2, 6]: 84.865%
- Cell Viability [2, 7]: 96.1375%
- Cell Viability [3, 4]: 85.8975%
- Cell Viability [3, 5]: 91.436%
- Cell Viability [3, 6]: 103.293%
- Cell Viability [3, 7]: 98.1178%

Structure (SMILES): N#CN1CC[C@H](C(=O)Nc2nc3c(s2)CN(C(=O)CN=[N+]=[N-])CC3)C1 [8RK64]
- Cell Viability [1, 4]: 91.8118%
- Cell Viability [1, 5]: 102.385%
- Cell Viability [1, 6]: 81.5329%
- Cell Viability [1, 7]: 88.8457%
- Cell Viability [2, 4]: 67.2995%
- Cell Viability [2, 5]: 105.29%
- Cell Viability [2, 6]: 57.1131%
- Cell Viability [2, 7]: 75.6901%
- Cell Viability [3, 4]: 104.648%
- Cell Viability [3, 5]: 104.354%
- Cell Viability [3, 6]: 102.804%
- Cell Viability [3, 7]: 85.3904%

Structure (SMILES): CN(C)[C@@H]1CCN(c2cc(-c3ccccc3)nc3ccnn23)C1 [(R)-ZINC-3573]
- Cell Viability [1, 4]: 103.063%
- Cell Viability [1, 5]: 100.336%
- Cell Viability [1, 6]: 115.069%
- Cell Viability [1, 7]: 113.962%
- Cell Viability [2, 4]: 97.0418%
- Cell Viability [2, 5]: 99.7993%
- Cell Viability [2, 6]: 84.3174%
- Cell Viability [2, 7]: 93.0838%
- Cell Viability [3, 4]: 122.992%
- Cell Viability [3, 5]: 121.371%
- Cell Viability [3, 6]: 72.8757%
- Cell Viability [3, 7]: 94.4779%

Structure (SMILES): CN(C)[C@H]1CCN(c2cc(-c3ccccc3)nc3ccnn23)C1 [(S)-ZINC-3573]
- Cell Viability [1, 4]: 106.455%
- Cell Viability [1, 5]: 83.2705%
- Cell Viability [1, 6]: 93.2108%
- Cell Viability [1, 7]: 87.5469%
- Cell Viability [2, 4]: 92.3796%
- Cell Viability [2, 5]: 112.128%
- Cell Viability [2, 6]: 114.664%
- Cell Viability [2, 7]: 102.75%
- Cell Viability [3, 4]: 87.7689%
- Cell Viability [3, 5]: 121.05%
- Cell Viability [3, 6]: 76.4871%
- Cell Viability [3, 7]: 118.538%

Structure (SMILES): Cn1cncc1[C@@](O)(COc1ccc(C#N)cc1-c1ccc(OC(F)(F)F)cc1)c1ccc(C#N)cc1 [A-108]
- Cell Viability [1, 4]: 57.9117%
- Cell Viability [1, 5]: 92.8032%
- Cell Viability [1, 6]: 90.1674%
- Cell Viability [1, 7]: 97.2035%
- Cell Viability [2, 4]: 89.1467%
- Cell Viability [2, 5]: 110.638%
- Cell Viability [2, 6]: 65.4211%
- Cell Viability [2, 7]: 112.38%
- Cell Viability [3, 4]: 113.578%
- Cell Viability [3, 5]: 151.877%
- Cell Viability [3, 6]: 88.7228%
- Cell Viability [3, 7]: 108.002%

Structure (SMILES): CCC(=N\O)/C(C)=C/c1ccc(F)c(C)c1 [A-226]
- Cell Viability [1, 4]: 99.1206%
- Cell Viability [1, 5]: 103.384%
- Cell Viability [1, 6]: 109.979%
- Cell Viability [1, 7]: 105.569%
- Cell Viability [2, 4]: 93.31%
- Cell Viability [2, 5]: 115.263%
- Cell Viability [2, 6]: 126.956%
- Cell Viability [2, 7]: 103.634%
- Cell Viability [3, 4]: 127.798%
- Cell Viability [3, 5]: 151.161%
- Cell Viability [3, 6]: 120.98%
- Cell Viability [3, 7]: 100.434%

Structure (SMILES): CCCCN(CCCC)C(=O)CN1C[C@@H](c2cc(OC)c3c(c2)OCO3)[C@H](C(=O)O)[C@H]1CC(C)(C)CCC [A-545]
- Cell Viability [1, 4]: 105.072%
- Cell Viability [1, 5]: 96.9928%
- Cell Viability [1, 6]: 119.694%
- Cell Viability [1, 7]: 109.859%
- Cell Viability [2, 4]: 123.099%
- Cell Viability [2, 5]: 97.2502%
- Cell Viability [2, 6]: 106.602%
- Cell Viability [2, 7]: 112.439%
- Cell Viability [3, 4]: 124.297%
- Cell Viability [3, 5]: 133.906%
- Cell Viability [3, 6]: 113.751%
- Cell Viability [3, 7]: 92.0951%

Structure (SMILES): CSc1cccnc1N1CCN(Cc2nc3ccccc3[nH]2)CC1 [A-769]
- Cell Viability [1, 4]: 93.5096%
- Cell Viability [1, 5]: 109.84%
- Cell Viability [1, 6]: 108.274%
- Cell Viability [1, 7]: 96.7022%
- Cell Viability [2, 4]: 125.432%
- Cell Viability [2, 5]: 98.3481%
- Cell Viability [2, 6]: 117.315%
- Cell Viability [2, 7]: 102.928%
- Cell Viability [3, 4]: 120.489%
- Cell Viability [3, 5]: 139.823%
- Cell Viability [3, 6]: 101.067%
- Cell Viability [3, 7]: 109.755%

Structure (SMILES): CN(C)CC#Cc1ccc(OCCCc2sc(N3CCc4cccc(C(=O)Nc5nc6ccccc6s5)c4C3)nc2C(=O)O)c(F)c1 [A-1155463]
- Cell Viability [1, 4]: 48.5807%
- Cell Viability [1, 5]: 127.556%
- Cell Viability [1, 6]: 26.2999%
- Cell Viability [1, 7]: 75.159%
- Cell Viability [2, 4]: 1.175%
- Cell Viability [2, 5]: 177.943%
- Cell Viability [2, 6]: 3.867%
- Cell Viability [2, 7]: 58.9374%
- Cell Viability [3, 4]: 0.3385%
- Cell Viability [3, 5]: 128.541%
- Cell Viability [3, 6]: 0.4136%
- Cell Viability [3, 7]: 37.2528%

Structure (SMILES): CO[C@H]1CC[C@H](CNc2ccc(S(=O)(=O)NC(=O)c3ccc(N4CCN(CC5=C(c6ccc(Cl)cc6)CC(C)(C)CC5)CC4)cc3Oc3cnc4[nH]ccc4c3)cc2[N+](=O)[O-])CC1 [A-1211212]
- Cell Viability [1, 4]: 35.4826%
- Cell Viability [1, 5]: 44.6988%
- Cell Viability [1, 6]: 55.1244%
- Cell Viability [1, 7]: 87.836%
- Cell Viability [2, 4]: 16.3832%
- Cell Viability [2, 5]: 159.244%
- Cell Viability [2, 6]: 32.5112%
- Cell Viability [2, 7]: 71.0169%
- Cell Viability [3, 4]: 8.693%
- Cell Viability [3, 5]: 108.861%
- Cell Viability [3, 6]: 18.6642%
- Cell Viability [3, 7]: 86.311%

Structure (SMILES): COc1ccc2c(c1)O[C@H](c1ccc(OC)c(OC)c1)C[C@@H]2NC(=O)C1(c2ccc3c(c2)OC(F)(F)O3)CC1 [A-1596584]
- Cell Viability [1, 4]: 97.6687%
- Cell Viability [1, 5]: 114.369%
- Cell Viability [1, 6]: 74.3649%
- Cell Viability [1, 7]: 92.2647%
- Cell Viability [2, 4]: 72.8626%
- Cell Viability [2, 5]: 142.746%
- Cell Viability [2, 6]: 90.2448%
- Cell Viability [2, 7]: 98.4012%
- Cell Viability [3, 4]: 86.7173%
- Cell Viability [3, 5]: 88.6658%
- Cell Viability [3, 6]: 66.4869%
- Cell Viability [3, 7]: 108.119%

Structure (SMILES): COc1ccc2c(c1)O[C@@H](c1ccc(OC)c(OC)c1)C[C@H]2NC(=O)C1(c2ccc3c(c2)OC(F)(F)O3)CC1 [A-1596586]
- Cell Viability [1, 4]: 96.097%
- Cell Viability [1, 5]: 118.297%
- Cell Viability [1, 6]: 94.5524%
- Cell Viability [1, 7]: 101.637%
- Cell Viability [2, 4]: 84.3805%
- Cell Viability [2, 5]: 101.93%
- Cell Viability [2, 6]: 87.5429%
- Cell Viability [2, 7]: 80.1817%
- Cell Viability [3, 4]: 95.9961%
- Cell Viability [3, 5]: 117.187%
- Cell Viability [3, 6]: 95.5945%
- Cell Viability [3, 7]: 101.185%
